Test results as given in US20080009418A1, “Selective Inhibitors” (Alchemia LTD., priority 2004, published 2008).

Assays:
Human μ-opioid (MOP) = target: T1, Human μ-opioid (MOP) (Homo sapiens, UniProt P35372); test: Radioligand binding, human μ-opioid (MOP) membranes, FlashPlate, [3H]-Naloxone; conditions: compound at 10 μM, [3H]-Naloxone
T1 construct: purchased Perkin Elmer Biosignal
Summary of the method: (§1)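 Cloned human receptor membranes were coated onto FlashPlate wells and incubated with radioligand and compound (added from a 0.5 mM DMSO daughter plate) for 1 hour at room temperature in the dark. Scintillation counting gave percent inhibition, with DMSO defining total and reference ligand defining non-specific binding.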

Human opioid (ORL1) = target: T2, Human opioid (ORL1) (Homo sapiens, UniProt P41146); test: Radioligand binding, human opioid ORL1 membranes, FlashPlate, [125I]-Nociceptin; conditions: compound at 10 μM, [125I]-Nociceptin
T2 construct: purchased Perkin Elmer Biosignal
Summary of the method: as §1

Human neurokinin (NK1) = target: T3, Human neurokinin (NK1) (Homo sapiens, UniProt P25103); test: Radioligand binding, human neurokinin NK1 membranes, filtration, [125I]-Substance P; conditions: compound at 10 μM, [125I]-Substance P
T3 construct: purchased Perkin Elmer Biosignal
Summary of the method: (§2)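 Filtration binding on cloned human receptor membranes (1 Unit/well), [125I]-Substance P for NK1 and [3H]-Diprenorphine for KOP, 1 h at room temperature. Filters PEI-presoaked, washed with cold 50 mM Tris-HCl pH 7.4, counted by scintillation; percent inhibition calculated, reference ligand defining non-specific binding.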

Human melanocortin (MC5) = target: T4, Human melanocortin (MC5) (Homo sapiens, UniProt P33032); test: Radioligand binding, human melanocortin MC5 membranes, FlashPlate, [125I]-NDP-αMSH; conditions: compound at 10 μM, [125I]-NDP-αMSH
T4 construct: purchased Perkin Elmer Biosignal
Summary of the method: as §1

Human κ-Opioid (KOP) = target: T5, Human κ-Opioid (KOP) (Homo sapiens, UniProt P41145); test: Radioligand binding, human κ-opioid (KOP) membranes, filtration, [3H]-Diprenorphine; conditions: compound at 10 μM, [3H]-Diprenorphine
T5 construct: purchased Perkin Elmer Biosignal
Summary of the method: as §2

Mouse urotensin (mUR2) = target: T6, Mouse urotensin (mUR2) (Mus musculus, UniProt Q8VIH9); test: Radioligand binding, mouse urotensin mUR2 membranes, FlashPlate, [125I]-Urotensin II; conditions: compound at 10 μM, [125I]-Urotensin II
T6 construct: purchased Perkin Elmer Biosignal
T6 sequence (Q8VIH9 1-385): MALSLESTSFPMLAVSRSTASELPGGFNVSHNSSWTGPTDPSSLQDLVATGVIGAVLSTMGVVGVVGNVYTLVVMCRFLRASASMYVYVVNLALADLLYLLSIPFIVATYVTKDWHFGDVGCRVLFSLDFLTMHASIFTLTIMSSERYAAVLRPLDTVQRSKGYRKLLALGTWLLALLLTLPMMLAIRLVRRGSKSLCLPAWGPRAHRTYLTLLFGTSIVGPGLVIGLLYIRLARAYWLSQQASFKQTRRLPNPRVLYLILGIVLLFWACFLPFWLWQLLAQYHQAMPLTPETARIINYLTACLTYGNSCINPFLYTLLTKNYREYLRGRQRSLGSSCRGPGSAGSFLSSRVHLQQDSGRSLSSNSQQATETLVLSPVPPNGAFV
Summary of the method: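 Cloned mouse urotensin (mUR2) receptor membranes from Perkin Elmer Biosignal were immobilized in FlashPlate microplates using a proprietary coating. Each well got 19.5 μl buffer, then 0.5 μl of DMSO, reference ligand, or compound. Adding 5 μl of [125I]-Urotensin II, diluted to 5× final concentration in binding buffer, started binding. Plates were sealed with TopSeal-A and incubated 1 hour at room temperature in the dark. Wells were counted for 30 seconds each on a TopCount after a 60-second delay, and percentage inhibition was calculated.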

Human δ-opioid (DOP) = target: T7, Human δ-opioid (DOP) (Homo sapiens, UniProt P41143); test: Radioligand binding, human δ-opioid (DOP) membranes, FlashPlate, [3H]-Bremazocine; conditions: compound at 10 μM, [3H]-Bremazocine
T7 construct: purchased Perkin Elmer Biosignal
Summary of the method: as §1

[1] = target: T8, Human melanin-concentrating hormone (MCH1) (Homo sapiens, UniProt Q99705); test: Radioligand binding, human melanin-concentrating hormone MCH1 membranes, FlashPlate, [125I]-S36057; conditions: compound at 10 μM
T8 construct: purchased Perkin Elmer Biosignal
Summary of the method: as §1

Human Melanocortin (MC3) = target: T9, Human Melanocortin (MC3) (Homo sapiens, UniProt P41968); test: Radioligand binding, human melanocortin MC3 membranes, FlashPlate, [125I]-NDP-αMSH; conditions: compound at 10 μM, [125I]-NDP-αMSH
T9 construct: purchased Perkin Elmer Biosignal
Summary of the method: as §1

[2] = target: T10, Human neuropeptide Y (NPY-Y1) (Homo sapiens, UniProt P25929); test: Radioligand binding, human neuropeptide Y NPY-Y1 membranes, FlashPlate, [125I]-PYY; conditions: compound at 10 μM, [125I]-PYY
T10 construct: purchased Perkin Elmer Biosignal
T10 sequence (P25929 1-384): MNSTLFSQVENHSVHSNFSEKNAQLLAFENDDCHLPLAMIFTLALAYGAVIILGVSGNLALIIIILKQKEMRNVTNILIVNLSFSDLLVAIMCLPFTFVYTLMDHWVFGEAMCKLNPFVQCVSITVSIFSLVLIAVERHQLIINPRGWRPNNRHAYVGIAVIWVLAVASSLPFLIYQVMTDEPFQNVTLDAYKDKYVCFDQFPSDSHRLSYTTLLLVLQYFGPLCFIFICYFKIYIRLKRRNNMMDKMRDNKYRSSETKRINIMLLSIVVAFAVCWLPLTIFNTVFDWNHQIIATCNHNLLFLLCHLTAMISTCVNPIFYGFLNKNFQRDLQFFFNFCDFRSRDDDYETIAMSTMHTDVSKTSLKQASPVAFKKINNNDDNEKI
Summary of the method: as §1

Human Melanocortin (MC4) = target: T11, Human Melanocortin (MC4) (Homo sapiens, UniProt P32245); test: Radioligand binding, human melanocortin MC4 membranes, FlashPlate, [125I]-NDP-αMSH; conditions: compound at 10 μM, [125I]-NDP-αMSH
T11 construct: purchased Perkin Elmer Biosignal
Summary of the method: as §1

T2 sequence (P41146 whole entry): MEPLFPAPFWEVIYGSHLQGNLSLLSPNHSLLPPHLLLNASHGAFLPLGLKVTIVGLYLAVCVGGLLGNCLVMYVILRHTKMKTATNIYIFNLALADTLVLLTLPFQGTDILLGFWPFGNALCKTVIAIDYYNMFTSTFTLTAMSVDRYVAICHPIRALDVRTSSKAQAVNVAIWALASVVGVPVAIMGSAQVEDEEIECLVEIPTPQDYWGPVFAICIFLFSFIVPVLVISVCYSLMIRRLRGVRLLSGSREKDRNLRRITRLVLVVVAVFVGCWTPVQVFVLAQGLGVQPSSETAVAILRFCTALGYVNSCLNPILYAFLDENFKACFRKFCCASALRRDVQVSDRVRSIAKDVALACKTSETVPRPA
T11 sequence (P32245 whole entry): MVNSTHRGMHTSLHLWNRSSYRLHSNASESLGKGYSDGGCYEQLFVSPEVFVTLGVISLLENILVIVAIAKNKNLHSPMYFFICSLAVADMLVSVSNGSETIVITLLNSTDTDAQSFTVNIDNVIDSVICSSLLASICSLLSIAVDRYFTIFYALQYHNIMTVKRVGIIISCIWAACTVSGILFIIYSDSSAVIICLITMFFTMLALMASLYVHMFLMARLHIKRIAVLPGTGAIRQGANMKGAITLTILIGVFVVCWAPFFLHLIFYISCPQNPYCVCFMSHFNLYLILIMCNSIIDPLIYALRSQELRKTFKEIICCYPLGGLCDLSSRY
T7 sequence (P41143 whole entry): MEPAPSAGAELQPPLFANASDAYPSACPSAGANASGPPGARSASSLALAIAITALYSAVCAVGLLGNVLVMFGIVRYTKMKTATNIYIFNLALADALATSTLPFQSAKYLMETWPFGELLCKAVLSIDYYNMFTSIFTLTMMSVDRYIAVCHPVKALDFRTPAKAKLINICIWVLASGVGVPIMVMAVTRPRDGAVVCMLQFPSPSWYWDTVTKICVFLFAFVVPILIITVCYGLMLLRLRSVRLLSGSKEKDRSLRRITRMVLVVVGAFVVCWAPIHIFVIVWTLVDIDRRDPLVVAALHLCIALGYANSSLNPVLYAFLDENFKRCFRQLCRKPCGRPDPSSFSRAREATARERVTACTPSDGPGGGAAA
T9 sequence (P41968 whole entry): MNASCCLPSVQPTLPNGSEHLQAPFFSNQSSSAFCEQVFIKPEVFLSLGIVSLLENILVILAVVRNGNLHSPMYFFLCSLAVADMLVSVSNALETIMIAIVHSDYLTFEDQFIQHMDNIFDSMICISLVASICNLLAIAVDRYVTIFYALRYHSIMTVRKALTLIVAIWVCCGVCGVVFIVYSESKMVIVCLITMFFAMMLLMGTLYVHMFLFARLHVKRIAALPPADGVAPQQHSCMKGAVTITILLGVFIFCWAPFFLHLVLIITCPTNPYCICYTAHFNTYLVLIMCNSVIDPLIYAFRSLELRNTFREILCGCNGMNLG
T5 sequence (P41145 whole entry): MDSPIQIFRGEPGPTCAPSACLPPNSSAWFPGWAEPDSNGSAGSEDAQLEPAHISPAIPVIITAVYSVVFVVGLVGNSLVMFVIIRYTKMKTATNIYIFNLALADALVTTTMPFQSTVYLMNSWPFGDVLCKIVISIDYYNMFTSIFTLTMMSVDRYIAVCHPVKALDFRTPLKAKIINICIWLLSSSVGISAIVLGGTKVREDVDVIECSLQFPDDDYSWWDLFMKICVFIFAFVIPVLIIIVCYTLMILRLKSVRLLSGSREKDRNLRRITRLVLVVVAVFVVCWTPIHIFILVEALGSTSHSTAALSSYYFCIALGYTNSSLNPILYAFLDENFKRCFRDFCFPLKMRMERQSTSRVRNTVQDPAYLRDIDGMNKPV
T1 sequence (P35372 whole entry): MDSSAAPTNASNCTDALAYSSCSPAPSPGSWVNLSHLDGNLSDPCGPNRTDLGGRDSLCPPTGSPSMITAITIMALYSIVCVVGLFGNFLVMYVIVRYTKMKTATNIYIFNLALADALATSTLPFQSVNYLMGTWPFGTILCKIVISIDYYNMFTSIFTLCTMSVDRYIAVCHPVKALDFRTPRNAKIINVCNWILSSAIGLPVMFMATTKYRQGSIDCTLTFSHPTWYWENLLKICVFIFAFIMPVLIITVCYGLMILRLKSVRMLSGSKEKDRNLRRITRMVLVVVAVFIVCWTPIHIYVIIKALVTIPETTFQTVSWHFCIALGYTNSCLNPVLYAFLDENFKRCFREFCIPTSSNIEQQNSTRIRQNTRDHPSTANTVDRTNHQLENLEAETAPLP
T8 sequence (Q99705 whole entry): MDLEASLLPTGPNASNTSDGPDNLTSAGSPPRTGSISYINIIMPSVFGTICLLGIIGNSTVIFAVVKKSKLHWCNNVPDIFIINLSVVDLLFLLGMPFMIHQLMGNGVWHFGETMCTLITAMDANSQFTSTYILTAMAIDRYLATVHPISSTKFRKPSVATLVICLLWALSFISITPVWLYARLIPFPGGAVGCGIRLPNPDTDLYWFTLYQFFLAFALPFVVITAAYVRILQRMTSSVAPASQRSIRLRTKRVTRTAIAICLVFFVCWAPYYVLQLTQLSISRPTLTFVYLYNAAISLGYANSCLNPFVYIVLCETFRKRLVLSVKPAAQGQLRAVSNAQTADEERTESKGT
T3 sequence (P25103 whole entry): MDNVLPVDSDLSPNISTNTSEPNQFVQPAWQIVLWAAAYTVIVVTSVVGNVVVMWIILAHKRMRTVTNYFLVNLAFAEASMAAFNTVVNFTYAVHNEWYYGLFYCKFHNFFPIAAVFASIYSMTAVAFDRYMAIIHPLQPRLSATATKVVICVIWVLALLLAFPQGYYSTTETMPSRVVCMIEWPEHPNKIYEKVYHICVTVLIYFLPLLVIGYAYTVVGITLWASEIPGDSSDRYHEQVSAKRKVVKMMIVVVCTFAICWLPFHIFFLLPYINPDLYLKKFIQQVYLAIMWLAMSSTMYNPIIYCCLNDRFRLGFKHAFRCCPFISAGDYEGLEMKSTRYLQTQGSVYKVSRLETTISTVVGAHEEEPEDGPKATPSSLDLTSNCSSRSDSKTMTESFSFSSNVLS
T4 sequence (P33032 whole entry): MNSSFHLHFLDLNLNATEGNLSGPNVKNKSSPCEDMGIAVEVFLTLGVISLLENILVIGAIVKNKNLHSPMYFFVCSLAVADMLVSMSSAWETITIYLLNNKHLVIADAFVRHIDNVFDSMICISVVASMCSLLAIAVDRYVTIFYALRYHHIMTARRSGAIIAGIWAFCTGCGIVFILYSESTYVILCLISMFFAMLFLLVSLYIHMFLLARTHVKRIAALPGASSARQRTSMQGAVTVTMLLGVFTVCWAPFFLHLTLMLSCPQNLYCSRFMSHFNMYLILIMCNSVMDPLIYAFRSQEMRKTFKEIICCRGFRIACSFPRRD

SMILES: NCC(=O)NC1O[C@H](CO)[C@@H](O)[C@H](OCc2ccccc2)[C@H]1NC(=O)c1ccccc1 (stereo partly shown) [compound 360]
- A7: inhibition of radioligand binding, human μ-opioid (MOP) (Human μ-opioid (MOP)): − (“−” indicates less than 50% inhibition at 10 μM)
- A10: inhibition of radioligand binding, human opioid (ORL1) (Human opioid (ORL1)): − (“−” indicates less than 50% inhibition at 10 μM)
- A8: inhibition of radioligand binding, human neurokinin (NK1) (Human neurokinin (NK1)): − (“−” indicates less than 50% inhibition at 10 μM)
- A5: inhibition of radioligand binding, human melanocortin (MC5) (Human melanocortin (MC5)): − (“−” indicates less than 50% inhibition at 10 μM)
- A2: inhibition of radioligand binding, human κ-opioid (KOP) (Human κ-Opioid (KOP)): − (“−” indicates less than 50% inhibition at 10 μM)
- A11: inhibition of radioligand binding, mouse urotensin (mUR2) (Mouse urotensin (mUR2)): − (“−” indicates less than 50% inhibition at 10 μM)
- A1: inhibition of radioligand binding, human δ-opioid (DOP) (Human δ-opioid (DOP)): − (“−” indicates less than 50% inhibition at 10 μM)
- A6: inhibition of radioligand binding, human melanin-concentrating hormone (MCH1) ([1]; [125I]-S36057): − (“−” indicates less than 50% inhibition at 10 μM)
- A3: inhibition of radioligand binding, human melanocortin (MC3) (Human Melanocortin (MC3)): − (“−” indicates less than 50% inhibition at 10 μM)
- A9: inhibition of radioligand binding, human neuropeptide Y (NPY-Y1) [2]: − (“−” indicates less than 50% inhibition at 10 μM)
- A4: inhibition of radioligand binding, human melanocortin (MC4) (Human Melanocortin (MC4)): + (“+” indicates greater than 50% inhibition at 10 μM)

SMILES: N=C(N)NCCC(=O)NC1C(OCc2ccc(Cl)cc2)OC(COCc2ccc(Cl)cc2)C(O)C1OCc1ccc(Cl)cc1 (stereo not shown) [compound 428]
- A7: inhibition of radioligand binding (Human μ-opioid (MOP); human MOP membranes): − (“−” indicates less than 50% inhibition at 10 μM)
- A10: inhibition of radioligand binding (Human opioid (ORL1); human ORL1 membranes): + (“+” indicates greater than 50% inhibition at 10 μM)
- A8: inhibition of radioligand binding (Human neurokinin (NK1); human NK1 membranes): + (“+” indicates greater than 50% inhibition at 10 μM)
- A5: inhibition of radioligand binding (Human melanocortin (MC5); human MC5 membranes): + (“+” indicates greater than 50% inhibition at 10 μM)
- A2: inhibition of radioligand binding (Human κ-Opioid (KOP); human KOP membranes): − (“−” indicates less than 50% inhibition at 10 μM)
- A11: inhibition of radioligand binding (Mouse urotensin (mUR2); mouse mUR2 membranes): − (“−” indicates less than 50% inhibition at 10 μM)
- A1: inhibition of radioligand binding (Human δ-opioid (DOP); human DOP membranes): − (“−” indicates less than 50% inhibition at 10 μM)
- A6: inhibition of radioligand binding ([1]; [125I]-S36057, human MCH1 membranes): + (“+” indicates greater than 50% inhibition at 10 μM)
- A3: inhibition of radioligand binding (Human Melanocortin (MC3); human MC3 membranes): + (“+” indicates greater than 50% inhibition at 10 μM)
- A9: inhibition of radioligand binding ([2]; human NPY-Y1 membranes): − (“−” indicates less than 50% inhibition at 10 μM)
- A4: inhibition of radioligand binding (Human Melanocortin (MC4); human MC4 membranes): + (“+” indicates greater than 50% inhibition at 10 μM)

SMILES: NCCCC(=O)NC1C(OCc2ccc(Cl)cc2)OC(COCc2ccccc2)C(O)C1OCc1ccc2ccccc2c1 (single isomer, unassigned) [compound 498]
- A7: inhibition of radioligand binding, human μ-opioid (MOP) (Human μ-opioid (MOP)): − (“−” indicates less than 50% inhibition at 10 μM)
- A10: inhibition of radioligand binding, human opioid (ORL1) (Human opioid (ORL1); 10 µM): + (“+” indicates greater than 50% inhibition at 10 μM)
- A8: inhibition of radioligand binding, human neurokinin (NK1) (Human neurokinin (NK1)): + (“+” indicates greater than 50% inhibition at 10 μM)
- A5: inhibition of radioligand binding, human melanocortin (MC5) (Human melanocortin (MC5)): + (“+” indicates greater than 50% inhibition at 10 μM)
- A2: inhibition of radioligand binding, human κ-opioid (KOP) (Human κ-Opioid (KOP)): − (“−” indicates less than 50% inhibition at 10 μM)
- A11: inhibition of radioligand binding, mouse urotensin (mUR2) (Mouse urotensin (mUR2)): − (“−” indicates less than 50% inhibition at 10 μM)
- A1: inhibition of radioligand binding, human δ-opioid (DOP) (Human δ-opioid (DOP)): − (“−” indicates less than 50% inhibition at 10 μM)
- A6: inhibition of radioligand binding, human melanin-concentrating hormone (MCH1) ([1]; [125I]-S36057): − (“−” indicates less than 50% inhibition at 10 μM)
- A3: inhibition of radioligand binding, human melanocortin (MC3) (Human Melanocortin (MC3)): − (“−” indicates less than 50% inhibition at 10 μM)
- A9: inhibition of radioligand binding, human neuropeptide Y (NPY-Y1) [2]: − (“−” indicates less than 50% inhibition at 10 μM)
- A4: inhibition of radioligand binding, human melanocortin (MC4) (Human Melanocortin (MC4); 10 µM): + (“+” indicates greater than 50% inhibition at 10 μM)

SMILES: COCC1OC(OCc2ccc(Cl)cc2)C(NC(=O)CCCN)C(OCc2ccc(-c3ccccc3)cc2)C1O (stereo not shown) [compound 207]
- A7: inhibition of radioligand binding (Human μ-opioid (MOP); FlashPlate): − (“−” indicates less than 50% inhibition at 10 μM)
- A10: inhibition of radioligand binding (Human opioid (ORL1); FlashPlate): − (“−” indicates less than 50% inhibition at 10 μM)
- A8: inhibition of radioligand binding (Human neurokinin (NK1); filtration): + (“+” indicates greater than 50% inhibition at 10 μM)
- A5: inhibition of radioligand binding (Human melanocortin (MC5); FlashPlate): + (“+” indicates greater than 50% inhibition at 10 μM)
- A2: inhibition of radioligand binding (Human κ-Opioid (KOP); filtration): − (“−” indicates less than 50% inhibition at 10 μM)
- A11: inhibition of radioligand binding (Mouse urotensin (mUR2); FlashPlate): − (“−” indicates less than 50% inhibition at 10 μM)
- A1: inhibition of radioligand binding (Human δ-opioid (DOP); FlashPlate): − (“−” indicates less than 50% inhibition at 10 μM)
- A6: inhibition of radioligand binding ([1]; [125I]-S36057, FlashPlate): − (“−” indicates less than 50% inhibition at 10 μM)
- A3: inhibition of radioligand binding (Human Melanocortin (MC3); FlashPlate): + (“+” indicates greater than 50% inhibition at 10 μM)
- A9: inhibition of radioligand binding ([2]; FlashPlate): − (“−” indicates less than 50% inhibition at 10 μM)
- A4: inhibition of radioligand binding (Human Melanocortin (MC4); FlashPlate): − (“−” indicates less than 50% inhibition at 10 μM)

SMILES: COCC1OC(OCc2ccccc2)C(NC(=O)CN)C(OCc2ccc(Cl)cc2)C1O (stereo not shown) [compound 176]
- A7 radioligand binding, percentage inhibition (Human μ-opioid (MOP)): − (“−” indicates less than 50% inhibition at 10 μM)
- A10 radioligand binding, percentage inhibition (Human opioid (ORL1)): − (“−” indicates less than 50% inhibition at 10 μM)
- A8 radioligand binding, percentage inhibition (Human neurokinin (NK1)): + (“+” indicates greater than 50% inhibition at 10 μM)
- A5 radioligand binding, percentage inhibition (Human melanocortin (MC5)): − (“−” indicates less than 50% inhibition at 10 μM)
- A2 radioligand binding, percentage inhibition (Human κ-Opioid (KOP)): − (“−” indicates less than 50% inhibition at 10 μM)
- A11 radioligand binding, percentage inhibition (Mouse urotensin (mUR2)): − (“−” indicates less than 50% inhibition at 10 μM)
- A1 radioligand binding, percentage inhibition (Human δ-opioid (DOP)): − (“−” indicates less than 50% inhibition at 10 μM)
- A6 radioligand binding, percentage inhibition ([1]; [125I]-S36057): − (“−” indicates less than 50% inhibition at 10 μM)
- A3 radioligand binding, percentage inhibition (Human Melanocortin (MC3)): − (“−” indicates less than 50% inhibition at 10 μM)
- A9 radioligand binding, percentage inhibition [2]: − (“−” indicates less than 50% inhibition at 10 μM)
- A4 radioligand binding, percentage inhibition (Human Melanocortin (MC4)): − (“−” indicates less than 50% inhibition at 10 μM)
